US12448371B2, “Inhibitor compounds” (Cincera Therapeutics Pty Ltd, priority 2019, dated 2025)
Counter-ions that a name gives are not always drawn. Values belong to the compound of their own block, whether it stands above or below them.

Molecular target: T1, Des1 (h) (Homo sapiens, UniProt O15121)
T1 construct: endogenous in cells; host or cells: parental Jurkat cells
T1 sequence (O15121 1-323): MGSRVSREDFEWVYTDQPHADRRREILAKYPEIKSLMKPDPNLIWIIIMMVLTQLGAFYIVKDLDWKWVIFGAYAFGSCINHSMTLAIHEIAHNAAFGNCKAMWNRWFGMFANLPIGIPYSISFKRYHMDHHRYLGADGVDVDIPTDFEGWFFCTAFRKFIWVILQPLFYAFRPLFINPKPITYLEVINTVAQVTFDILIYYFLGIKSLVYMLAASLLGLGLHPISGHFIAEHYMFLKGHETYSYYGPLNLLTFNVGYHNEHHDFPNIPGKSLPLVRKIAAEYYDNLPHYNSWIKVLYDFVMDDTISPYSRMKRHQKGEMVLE
Experiment: Measurement of Dihydroceramide Desaturase-1 (Des-1) activity in intact Jurkat cells labeled with DhCer-C6-NBD (HPLC)
Type: cell-based
Conditions: for inhibition at 1 µM / % inhibition of Des1 at 0.1 μM / % inhibition of Des1 at 10 μM: Jurkat cells; for IC50: intact Jurkat cells, given as concentration range, or <X / >X if measured at one concentration X only, read-out: Des1 (h) Jurkat IC50
Procedure: Measurement of Dihydroceramide Desaturase-1 (Des-1) Activity
Compounds were assessed for Des-1 inhibitory activity. Measurement of Des1 activity was performed by HPLC using intact Jurkat cells labeled with DhCer-C6-NBD as described previously (Munoz-Olaya, J. M. et al. ChemMedChem 2008, 3, 946-953) with modifications to enhance sensitivity and reproducibility. These modifications included the use of parental Jurkat cells, 0.5% serum in the culture media, and cell harvesting via centrifugation at 500×g to maximise ceramide extraction. Extracted samples (50 ul) were analysed on a Waters HPLC coupled to a fluorescence detector using a 30 cm C18 reverse-phase column eluted with 1 ml/min 20% H2O and 80% acetonitrile, both with a 0.1% of trifluoroacetic acid. NBD-labelled substrate and product were quantitated with an excitation and emission wavelengths of 465 nm and 530 nm, respectively.

SMILES: N=C(NCC(O)CO)c1ccc(Nc2ncc(-c3ccc(C(F)(F)F)cc3)o2)cn1 (racemic) [Compound 91, rac-N-(2,3-dihydroxypropyl)-5-((5-(4-(trifluoromethyl)phenyl)oxazol-2-yl)amino)picolinimidamide]
inhibition at 1 µM: 44%
IC50: > 1 µM

SMILES: O=S(=O)(NCC(O)CO)c1ccc(Nc2ncc(-c3ccc(C(F)(F)F)cc3)o2)cn1 (racemic) [Example 16, rac-N-(2,3-Dihydroxypropyl)-5-((5-[4-(trifluoromethyl)phenyl]-1,3-oxazol-2-yl)amino)pyridine-2-sulfonamide]
inhibition at 1 µM: 42%
IC50: > 1 µM

SMILES: O=C(NCC(O)CO)c1ccc(Nc2ncc(-c3ccc(C(F)(F)F)cc3)o2)cn1 (racemic) [Example 17, rac-N-(2,3-Dihydroxypropyl)-5-((5-[4-(trifluoromethyl)phenyl]-1,3-oxazol-2-yl)amino) picolinamide]
IC50: 0.001 to 0.01 µM

SMILES: NNC(=O)c1ccc(Nc2ncc(-c3ccc(C(F)(F)F)cc3)o2)cn1 [Compound 92, 5-((5-(4-(Trifluoromethyl)phenyl)oxazol-2-yl)amino)picolinohydrazide]
IC50: 0.1 to 1 µM

SMILES: O=CNNC(=O)c1ccc(Nc2ncc(-c3ccc(C(F)(F)F)cc3)o2)cn1 [Compound 93, N′-formyl-5-((5-(4-(trifluoromethyl)phenyl)oxazol-2-yl)amino)picolinohydrazide]
IC50: < 1 µM

SMILES: O=C(NC[C@@H](O)CO)c1ccc(Nc2ncc(-c3ccc(C(F)(F)F)cn3)o2)cn1 [Compound 95, (R)—N-(2,3-dihydroxypropyl)-5-((5-(5-(trifluoromethyl)pyridin-2-yl)oxazol-2-yl)amino)picolinamide]
IC50: 0.01 to 0.1 µM

SMILES: Cc1nc(Nc2ccc(C(=O)NC[C@@H](O)CO)nc2)oc1-c1ccc(C(F)(F)F)cc1 [Compound 96, (R)—N-(2,3-dihydroxypropyl)-5-((4-methyl-5-(4-(trifluoromethyl)phenyl)oxazol-2-yl)amino)picolinamide]
IC50: < 1 µM

SMILES: O=C(NC[C@@H](O)CO)c1ccc(Nc2ncc(-c3ccc(F)c(F)c3)o2)cn1 [Compound 97, (R)-5-((5-(3,4-Difluorophenyl)oxazol-2-yl)amino)-N-(2,3-dihydroxypropyl)picolinamide]
% inhibition of Des1 at 0.1 μM: 55%

SMILES: N/C(=N\O)c1ccc(Nc2ncc(-c3ccc(Cl)cc3)o2)cn1 [Compound 100, 5-((5-(4-Chlorophenyl)oxazol-2-yl)amino)-N′-hydroxypicolinimidamide]
IC50: < 1 µM

SMILES: N/C(=N\O)c1cnc(Nc2ncc(-c3ccc(Cl)cc3)o2)cn1 [Compound 101, 5-((5-(4-Chlorophenyl)oxazol-2-yl)amino)-N′-hydroxypyrazine-2-carboximidamide]
IC50: < 1 µM

SMILES: Cn1nc(Nc2cnc(/C(N)=N/O)cn2)cc1-c1ccc(C(F)(F)F)cn1 [Compound 110, N′-Hydroxy-5-((1-methyl-5-(5-(trifluoromethyl)pyridin-2-yl)-1H-pyrazol-3-yl)amino)pyrazine-2-carboximidamide]
inhibition at 1 µM: 31%
IC50: > 1 µM

SMILES: N/C(=N\O)c1ccc(Nc2ncc(-c3ccc(C(F)(F)F)nn3)o2)cn1 [Compound 119, N′-Hydroxy-5-((5-(6-(trifluoromethyl)pyridazin-3-yl)oxazol-2-yl)amino)picolinimidamide]
inhibition at 1 µM: 44%
IC50: > 1 µM

SMILES: O=C(NO)c1ccc(Nc2ncc(-c3ccc(Cl)cc3)o2)cn1 [Example 1, 5-((5-(4-Chlorophenyl)oxazol-2-yl)amino)-N-hydroxypicolinamide]
IC50: 0.1 to 1 µM

SMILES: O=C(NO)c1ccc(Nc2ncc(-c3ccc(C(F)(F)F)cc3)o2)cn1 [Example 2, N-Hydroxy-5-((5-(4-(trifluoromethyl)phenyl)oxazol-2-yl)amino)picolinamide]
IC50: 0.1 to 1 µM

SMILES: N/C(=N\O)c1ccc(Nc2ncc(-c3ccc(C(F)(F)F)cc3)o2)nc1 [Example 3, N′-Hydroxy-6-((5-(4-(trifluoromethyl)phenyl)oxazol-2-yl)amino)nicotinimidamide hydrochloride]
IC50: 0.1 to 1 µM

SMILES: ONc1ccc(Nc2ncc(-c3ccc(C(F)(F)F)cc3)o2)cn1 [Example 4, N-(6-(Hydroxyamino)pyridin-3-yl)-5-(4-(trifluoromethyl)phenyl)oxazol-2-amine]
IC50: 1 to 10 µM

SMILES: O=c1cc(Nc2nnc(-c3ccc(C(F)(F)F)cc3)o2)ccn1O [Example 7, 1-Hydroxy-4-((5-[4-(trifluoromethyl)phenyl]-1,3,4-oxadiazol-2-yl)amino)-1,2-dihydropyridin-2-one]
IC50: < 1 µM

SMILES: O=C(NO)c1ncc(Nc2ncc(-c3ccc(C(F)(F)F)cc3)o2)cn1 [Example 10]
IC50: 1 to 10 µM

SMILES: O=C(NO)c1ccc(Nc2nc(-c3ccc(C(F)(F)F)cc3)co2)nn1 [Example 13, N-Hydroxy-6-((4-(4-(trifluoromethyl)phenyl)oxazol-2-yl)amino)pyridazine-3-carboxamide]
IC50: 1 to 10 µM

SMILES: O=C(NO)c1ccc(Nc2nc(-c3ccc(C(F)(F)F)cc3)co2)cn1 [Example 14, N-Hydroxy-5-((4-[4-(trifluoromethyl)phenyl]-1,3-oxazol-2-yl)amino)picolinamide]
IC50: 0.1 to 1 µM

SMILES: CN(O)S(=O)(=O)c1ccc(Nc2ncc(-c3ccc(C(F)(F)F)cc3)o2)cn1 [Example 15, N-Hydroxy-N-methyl-5-((5-[4-(trifluoromethyl)phenyl]-1,3-oxazol-2-yl)amino) pyridine-2-sulfonamide]
inhibition at 1 µM: 46%
IC50: > 1 µM

SMILES: Oc1ccc(Nc2ncc(-c3ccc(C(F)(F)F)cc3)o2)nc1 [Example 18, 6-((5-(4-(Trifluoromethyl)phenyl)oxazol-2-yl)amino)pyridin-3-ol]
IC50: < 1 µM

Results, then the compound that gave them:

inhibition at 1 µM: 26%
IC50: > 1 µM
SMILES: O=C(NCC(O)CO)c1ccc(Nc2cnn(-c3ccc(C(F)(F)F)cn3)c2)cn1 (racemic) [Compound 104, rac-N-(2,3-Dihydroxypropyl)-5-((1-(5-(trifluoromethyl)pyridin-2-yl)-1H-pyrazol-4-yl)amino)picolinamide]

inhibition at 1 µM: 30%
IC50: > 1 µM
SMILES: CNNC(=O)c1ccc(Nc2ncc(-c3ccc(C(F)(F)F)cc3)o2)cn1 [Compound 94, N′-Methyl-5-((5-(4-(trifluoromethyl)phenyl)oxazol-2-yl)amino)picolinohydrazide]

% inhibition of Des1 at 0.1 μM: 70%
SMILES: O=C(NC[C@@H](O)CO)c1ccc(Nc2ncc(-c3ccc(F)cc3)o2)cn1 [Compound 98, (R)—N-(2,3-dihydroxypropyl)-5-((5-(4-fluorophenyl)oxazol-2-yl)amino)picolinamide]

IC50: < 1 µM
SMILES: Oc1ccc(Nc2ncc(-c3ccc(OC(F)(F)F)cc3)o2)nc1 [Compound 105, 6-((5-(4-(Trifluoromethoxy)phenyl)oxazol-2-yl)amino)pyridin-3-ol]

inhibition at 1 µM: 36%
IC50: > 1 µM
SMILES: N/C(=N/O)c1ccc(Nc2ncc(-c3ccc(F)cn3)o2)cn1 [Compound 117, 5-((5-(5-Fluoropyridin-2-yl)oxazol-2-yl)amino)-N′-hydroxypicolinimidamide]

IC50: 0.1 to 1 µM
SMILES: N=C(NO)c1ccc(Nc2nnc(-c3ccc(C(F)(F)F)cc3)o2)cn1 [Example 5, 5-((5-[4-(Trifluoromethyl)phenyl]-1,3,4-oxadiazol-2-yl)amino)-N-hydroxy-pyridine-2-carboximidamide]

IC50: 0.1 to 1 µM
SMILES: N=C(NO)c1ccc(Nc2nnc(-c3ccc(C(F)(F)F)c(F)c3)o2)cn1 [Example 6, 5-((5-[3-Fluoro-4-(trifluoromethyl)phenyl]-1,3,4-oxadiazol-2-yl)amino)-N-hydroxypyridine-2-carboximidamide]

% inhibition of Des1 at 10 μM: 26%
IC50: > 10 µM
SMILES: O=C(NO)c1ncc(Nc2nc(-c3ccc(Cl)cc3)cs2)cn1 [Example 9, 5-([4-(4-Chlorophenyl)-1,3-thiazol-2-yl]amino)-N-hydroxypyrimidine-2-carboxamide]

IC50: 0.1 to 1 µM
SMILES: O=C(NO)c1ccc(Nc2ncc(-c3ccc(C(F)(F)F)cc3)o2)nn1 [Example 11, N-Hydroxy-6-((5-[4-(trifluoromethyl)phenyl]-1,3-oxazol-2-yl)amino)pyridazine-3-carboxamide]

IC50: 1 to 10 µM
SMILES: O=C(NO)c1ncc(Nc2nc(-c3ccc(C(F)(F)F)cc3)co2)cn1 [Example 12, N-Hydroxy-5-((4-[4-(trifluoromethyl)phenyl]-1,3-oxazol-2-yl)amino)pyrimidine-2-carboxamide]

IC50: 1 to 10 µM
SMILES: O=C(NCCO)c1ccc(Nc2ncc(-c3ccc(C(F)(F)F)cc3)o2)cn1 [Example 19, N-(2-Hydroxyethyl)-5-((5-(4-(trifluoromethyl)phenyl)oxazol-2-yl)amino)picolinamide]

inhibition at 1 µM: 38%
IC50: > 1 µM
SMILES: Cc1cc(Nc2ncc(-c3ccc(C(F)(F)F)cc3)o2)cnc1C(=O)N(C)O [Example 21, N-Hydroxy-N,3-dimethyl-5-((5-(4-(trifluoromethyl)phenyl)oxazol-2-yl)amino)picolinamide]

% inhibition of Des1 at 10 μM: 81%
SMILES: O=C(c1ccc(Nc2ncc(-c3ccc(C(F)(F)F)cc3)o2)cn1)N(O)CCO [Example 22, N-Hydroxy-N-(2-hydroxyethyl)-5-((5-(4-(trifluoromethyl)phenyl)oxazol-2-yl)amino)picolinamide]
